Source: patent US20090042823A1 (priority 2007, published 2009)

Test system: PR8 virus
Design: species or system influenza A virus
Settings: in vivo

CCOC(=O)C1=C[C@@H](OC(CC)CC)[C@H](NC(C)=O)[C@@H](N)C1 [oseltamivir drug, oseltamivir]
influenza viral titer relative to GFP control siRNA: reduced influenza viral titers
